Reference: patent publication US11357786B2, “Synthetic disugar hydrocarbons as natural analogs to control microbial behaviors” (Syracuse University, priority 2014, dated 2022)

How the values were obtained:
Type in all cases: cell-based, Pseudomonas aeruginosa
PAO1 biofilm = assay: Crystal violet based static biofilm inhibition assay, DSHs in LB media (Examples 2 and 4); settings: for Inhibition of PAO1 biofilm formation (surface attached): 160 μM, 24 h, LB media; for Anti-biofilm activity (biofilm inhibition): concentration not given
Experimental: The ability of DSHs was tested to inhibit Pseudomonas aeruginosa adhesion, biofilm and to disperse pre-formed biofilm. To quantify the amount of PAO1/EGFP attached on the surface of micro titer plates with or without the synthesized DSHs, fluorescence emitted by green fluorescent proteins (GFP) was quantified (see supporting info for details). Crystal violet (CV) based static biofilm assay (see supporting info) was used to screen the anti-biofilm potencies of all synthesized agents. Both surface attached (SA) (FIG. 17) and total (SA+air-liquid interface) biofilm of P. aeruginosa was quantified. […] CV assays were also used to quantify the amount of P. aeruginosa biofilm remaining after dispersion experiments (FIG. 19). Initially, all agents were screen for anti-biofilm activities (both inhibition and dispersion) at 160 μM. […] All reported biofilm inhibition results are an average of 4 identical wells.
The effect that DSHs have on the adhesion of PAO1-EGFP on polystyrene surface (microtiter plate) was also examined. PAO1-EGFP is a P. aeruginosa strain that constitutively expresses green fluorescent protein. In the adhesion assays, PAO1-EGFP was grown in microtiter plate for 24-hours in LB-media with (160 μM) or without DSHs. After 24-hours, the fluorescent signal obtained from surface adhered PAO1-EGFP was measured. Percent reduction in fluorescence was calculated by comparing fluorescent signal from PAO1-EGFP grown in LB-media with the signal from wells that had DSHs (FIG. 29A). To study the effect of DSHs on biofilm formation, Pseudomonas aeruginosa (PAO1) was grown in LB-media with (160 μM) or without DSHs at 37° C. under static conditions within wells of microtiter plates. After 24 hours, the surface attached biofilms adhering to the bottom of the wells were stained with crystal-violet dye and the biofilm was quantified by measuring absorbance at 600 nm (OD600). […] Similar to inhibition, the surface attached biofilm after dispersion with DSHs was quantified with crystal-violet staining and absorbance measurement at 600 nm, except that for dispersion, biofilm was first grown for 1 day in just LB-media without any DSHs after which DSHs were added and plates were incubated for additional 24 hours followed by quantification (FIG. 29B).
Crystal violet (CV) based-biofilm inhibition assay. Inhibitory effect of all synthesized disaccharide hydrocarbons on biofilm formation of Pseudomonas aeruginosa (wild type PAO1) was determined by static biofilm inhibition assay using crystal violet staining. Overnight culture of PAO1 were sub cultured in LB media to OD600 of 0.01 and further the OD600 was allowed to reach ˜0.1. The bacterial sub-culture (200 μL) was then added into the wells of a microtiter plate. Predetermined concentrations of DSHs were added to respective wells containing sub culture by pipetting out fixed volume of sterile aqueous stock solutions (except DβL (7), SPOT, (15) and 2-ODαC (17), which were introduced as stocks prepared in H2O […] and EtOH (90:10) solutions). The microtiter plates were then wrapped in GLAD Press n′ Seal® (saran wrap) and further incubated under stationary conditions for 24 h at 37° C. After 24 h incubation, the culture media was discarded by pipetting carefully (without disrupting biofilm), the plate was then washed once with sterile water (200 μL) and allowed to dry at 37° C. for ˜30 mins. Microtiter plates were then stained with 0.1% aqueous solution of crystal violet (CV) (200 μL) at rt for ˜30 mins. Following this, the CV stain was removed and plate was again washed with sterile water (200 μL). Resultant CV stain in the well was then solubilized by adding 100 μL of 30% AcOH solution (in water) and mixing gently by pipetting.

wild type PAO1 = assay: Swarming motility of wild type PAO1 on soft agar (antagonist assay); settings: for Swarming of wild type PAO1: 110 μM in soft agar; for Effect on PAO1 swarming: concentration not given
Experimental: In contrast, the wild type P. aeruginosa produces the rhamnolipids and is capable of swarming on soft agar gel (˜0.5% agar). […] We note that saccharide hydrocarbons may also promote the swarming motility, but such promotions are less unambiguous than the inhibition for wild type PAO1. Such promotion will be unambiguous in the agonist assay using the nonswarming mutant rhlA.
(§1) Swarm agar plates were based on M8 medium supplemented with 0.2% glucose, 0.5% casamino acid, 1 mM MgSO4 and […]. 17 For each set of experiment all the swarm plates were poured from same batch of agar and allowed to dry for 1 h before inoculation of bacteria. Bacterial culture (3 μl) (wild type PAO1 or rhlA mutant) with OD600 between […] was inoculated on the solidified agar plates. Swarm agar plates were incubated at 37° C. for 12 h and then incubated for additional 12 h at room temp. Chronological images of swarm plates were taken using a camera. To measure swarming area, sizes of the petridish in all swarming images were adjusted to a pre-assigned diameter and images were printed on copying paper (Xerox-business 4200). Weight of a 1 cm^2 copy paper square was roughly ˜8.0 mg. swarming images on the copy paper were cut and weighed, the swarm area was calculated by dividing the weight of image by weight of 1 cm^2 square (8 mg).
(§2) Swarm agar plates were made using M8 medium supplemented with 0.2% glucose, 0.5% casamino acid, 1 mM MgSO4 and solidified with 0.5% Bacto agar. 24 Bacterial culture with OD600 between 0.4 to 0.6 was inoculated as 3 μl aliquots. Swarm agar plates were incubated at 37° C. for 12 h and then incubated for additional 12 h at rt. For each set of experiment all the swarm plates were poured from same batch of agar and allowed to dry for 1 h before inoculation of bacteria.

[1] = test system: nonswarming P. aeruginosa mutant rhlA; assay: Swarming motility of nonswarming rhlA mutant on soft agar (reactivation / agonist assay); settings: for Swarming reactivation of rhlA mutant: 110 μM in soft agar
From the text: Using nonswarming mutant to screen for swarming agonists and wild type P. aeruginosa for swarming antagonists. The transposon mutant, rhlA (genotype, rhlA-E08:ISphoA/hah)39 of P. aeruginosa (PAO1), that impairs the gene that is responsible for synthesizing rhamnolipids is completely incapable of a swarming motility. […] Based on this inference, a rhlA mutant was used in a swarming experiment to screen the saccharide-hydrocarbons for agonists that can reactivate the swarming motility of rhlA.
as §1, §2

PAO1-EGFP biofilm = assay: Biofilm on steel coupons, fluorescence / CLSM; settings: 160 μM, 24 h, LB media
Experimental: A crystal violet (CV) assay was used to measure the amount of PAO1 biofilm formed after 24 h of bacterial inoculation. The fluorescence of green fluorescent proteins (GFP) expressed by PAO1-GFP was measured to directly quantify bacterial adhesion on polystyrene black 96 well plates with and without maltose derivatives after 2 h of bacterial inoculation. To evaluate the potential of maltose derivatives as both anti-biofilm and anti-adhesion agents, they were compared to a brominated furanone (BF8) known to inhibit biofilm formation, and two generic surfactants, sodium dodecyl sulfate (SDS) and tetra (ethylene glycol) monododecyl ether (C12EG4OH). […] P. aeruginosa strain PAO1-EGFP that constitutively producing green fluorescent protein was allowed to form biofilm on sterile steel coupons.
Confocal laser scanning microscopy (CLSM) based biofilm inhibition assay. Steel coupons (˜1×1 cm) were washed with EtOH, dried under a stream of nitrogen and then sterilized in an autoclave. Overnight culture of PAO1/EGFP (OD600 ˜1.0) grown in LB media (supplemented with 300 μg/mL of carbenicillin), was sub-cultured to OD600˜0.01 and then the OD600 was allowed to reach ˜0.1. Aliquot (600 μL) of PAO1/EGFP subculture OD600˜0.1 was then added into the wells of a 24-well micro titer plate. DSHs were then introduced into the assigned wells to reach a resultant concentration of 160 μM. Bacterial sub-culture with no agent served as positive control. Sterile steel coupons were then placed into the wells and the plates were wrapped with saran wrap and incubated for 24 h at 37° C. under static conditions. After 24 hours, the steel coupons were removed and washed by dipping in PBS buffer (2 washes) and the dried by holding with a forcep and gently dabbing the edge on a bleached paper (KIM wipes). The dried steel coupons were viewed under confocal laser scanning microscope (CLSM). Images were taken at 4 random locations on each steel coupons. Z-stacked images were also taken to determine the relative thickness of the biofilm.

[2] = 85 μM in soft agar (0.5%), 24 h

CCCCCCCCCCO[C@@H]1O[C@H](CO)[C@@H](O[C@@H]2O[C@H](CO)[C@@H](O)[C@H](O)[C@H]2O)[C@H](O)[C@H]1O [DeβC (2), decyl-β-cellobioside] was tested. Which “Inhibition of PAO1 biofilm formation (surface attached)” value (shortened to “Inhibition of PAO1 biofilm formation”) (PAO1 biofilm) did it give?
Its value is “insignificant biofilm inhibition and no”.

And the “Inhibition of PAO1 biofilm formation” value (PAO1 biofilm; listed as 2: DeβC, 160 µM)?
Its value is “complete loss of anti-biofilm activity”.

What about the “Anti-biofilm activity (biofilm inhibition)” value (PAO1 biofilm) of the same molecule?
Its value is “did not show significant inhibition of PAO1 biofilm”.

And the “Anti-biofilm activity (biofilm inhibition)” value (PAO1 biofilm; listed as DβC (2))?
Its value is “did not show anti-biofilm activities”.

And the “Swarming motility of wild type PAO1” value (wild type PAO1; 85 μM in soft agar, 24 h)?
Its value is “did not show a noticeable effect on the swarming motility”.

And the “Swarming of wild type PAO1” value (wild type PAO1; 24 h)?
The value was “did not significantly affect the swarm pattern”.

And the “Swarming motility of wild type PAO1” value (wild type PAO1; 160 μM in soft agar, 24 h)?
The value was “weak promotion of swarming motility of wild type PAO1”.

And the “Effect on PAO1 swarming” value (wild type PAO1)?
Its value is “no apparent effect on PAO1 swarming”.

And the “Swarming motility of rhlA mutant” value [1, 2]?
Its value is “did not show a noticeable effect on the swarming motility”.

What about the “Swarming reactivation of rhlA mutant” value ([1]; 24 h) of the same molecule?
The value was “incapable of reactivating the swarming”.

What about the “Swarming motility of rhlA mutant” value ([1]; 160 μM in soft agar, 24 h) of the same molecule?
Its value is “weak activation of rhlA swarming motility”.

What about the “Reactivation of swarming motility of rhlA mutant” value ([1]; concentration not given) of the same molecule?
The value was “activated the swarming motility of rhlA mutant”.

What about the “Increase of reactivated swarming ring of rhlA with respect to swarming ring of PAO1 without agents” value ([1]; increasing from 85 to 160 μM) of the same molecule?
Its value is 38%.

What about the “PAO1-EGFP biofilm on stainless steel coupons (CLSM)” value (“PAO1-EGFP biofilm” below) (PAO1-EGFP biofilm) of the same molecule?
Its value is “bacterial surface coverage comparable to that of control”.

With CCCCCCCCCCCCO[C@@H]1O[C@H](CO)[C@@H](O[C@@H]2O[C@H](CO)[C@@H](O)[C@H](O)[C@H]2O)[C@H](O)[C@H]1O [DβC (4), dodecyl-β-cellobioside] as the molecule, how does the “Inhibition of PAO1 biofilm formation” value (PAO1 biofilm; listed as 4: DβC, 160 µM) read?
Its value is 60%.

And the “Inhibition of PAO1 biofilm formation” value (PAO1 biofilm; listed as DISC (4))?
The value was 62%.

And the IC50 (PAO1 biofilm; Example 4, FIG. 30)?
Its IC50 is about 72 µM.

What about the “Concentration at which tendrils were induced in PAO1” value (wild type PAO1) of the same molecule?
The value was 20 µM.

What about the “Swarming motility of wild type PAO1” value (wild type PAO1; 20 μM) of the same molecule?
The value was “stronger inhibition than rhamnolipids”.

What about the “Swarming area of PAO1 smaller than control” value (wild type PAO1; 85 μM) of the same molecule?
Its value is about 46%.

What about the “Swarming motility of wild type PAO1” value (wild type PAO1; 85 μM in soft agar, 24 h) of the same molecule?
The value was “causing significant amount of tendril formation”.

And the “Swarming area of wild type PAO1” value (wild type PAO1; 85 μM, control ~24 cm2)?
The value was about 13 cm2.

And the “Swarming of wild type PAO1” value (wild type PAO1; 24 h, listed as 4: DbC)?
The value was “promotes tendril formation”.

What about the “Swarming of wild type PAO1” value (wild type PAO1; 24 h, listed as 4: DβC) of the same molecule?
The value was “induced more tendril formation”.

And the “Effect on PAO1 swarming” value (wild type PAO1)?
The value was “induced tendril formation in the swarming pattern of PAO1”.

What about the “Concentration of activity reversal for swarming inhibition of PAO1 (transition concentration)” value (wild type PAO1; soft agar) of the same molecule?
Its value is about 20 to 30 µM.

And the “Concentration at which tendril formation was induced in rhlA mutant” value [1]?
Its value is about 56 µM.

And the “Concentration of first inhibition of rhlA swarming” value [1]?
The value was “around 50 μM”.

What about the “Swarming motility of rhlA mutant” value ([1]; 40 μM) of the same molecule?
The value was “activated the swarming motility of rhlA mutant”.

What about the “Swarming motility of rhlA mutant” value [1, 2] of the same molecule?
The value was “strong reactivation of the swarming motility in rhlA mutant”.

What about the “Swarming reactivation of rhlA mutant” value ([1]; 24 h, listed as 4: DbC) of the same molecule?
Its value is “fully restores swarming with fine tendrils”.

What about the “Swarming reactivation of rhlA mutant” value ([1]; 24 h, listed as 4: DβC) of the same molecule?
The value was “fully restored the swarming of rhlA”.

And the “Concentration of another activation of rhlA swarming” value ([1]; after first inhibition)?
Its value is “about 160 μM”.

And the “Concentration of activity reversal for swarming promotion of rhlA mutant (transition concentration)” value ([1]; soft agar)?
The value was “^a~45-56 μM”.

And the “Lowest concentration that reactivates swarming of rhlA mutant” value ([1]; soft agar)?
Its value is at most 20 µM.

And the “Concentration of activity reversal for swarming promotion of rhlA mutant (transition concentration)” value ([1]; soft agar, listed as 4)?
The value was 45 to 56 µM.

What about the “PAO1-EGFP biofilm” value (PAO1-EGFP biofilm) of the same molecule?
Its value is “decreased the fluorescence signal significantly”.

Which “Inhibition of PAO1 biofilm formation” value (PAO1 biofilm) does the source give for CCCCCCCCCCCCO[C@@H]1O[C@H](CO)[C@@H](O[C@@H]2O[C@H](CO)[C@H](O)[C@H](O)[C@H]2O)[C@H](O)[C@H]1O [DβL (7), dodecyl-β-lactoside] here?
The value was “insignificant biofilm inhibition”.

What about the “Inhibition of PAO1 biofilm formation” value (PAO1 biofilm; listed as 7: DβL, 160 µM) of the same molecule?
Its value is “severely compromised the anti-biofilm activity”.

What about the “Anti-biofilm activity (biofilm inhibition)” value (PAO1 biofilm) of the same molecule?
The value was “low activities”.

And the “Swarming of wild type PAO1” value (wild type PAO1; 24 h)?
The value was “did not significantly affect the swarm pattern”.

What about the “Swarming reactivation of rhlA mutant” value ([1]; 24 h) of the same molecule?
The value was “incapable of reactivating the swarming”.

And the “PAO1-EGFP biofilm” value (PAO1-EGFP biofilm)?
The value was “bacterial surface coverage comparable to that of control”.
